According to US20260325533A1, “CDK INHIBITOR COMPOUNDS” (ALEKSIA THERAPEUTICS, INC., priority 2023, published 2026):
pIC50: −log10 of the molar value. Like-named read-outs stand apart in the source and are kept apart here.

What was measured:
Assay type in all cases: biochemical
CDK6/CCND1 = CDK6/CCND1 (Homo sapiens, UniProt Q00534); experiment: CDK6 homogeneous time-resolved fluorescence (HTRF) kinase assay; settings: CDK6/CCND
How it was run: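 Recombinant CDK6/CCND1 (1 nM final) was preincubated with compound for 20 min at 23 °C in HEPES buffer with MgCl2, EGTA, DTT and Tween 20. Kinase reaction then ran 60 min at 23 °C with 1 mM ATP and 50 nM ULight-4E-BP1 (Thr37/46) peptide, and was stopped with EDTA.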

CDK1/CCNB1 = CDK1/CCNB1 (Homo sapiens, UniProt P06493); experiment: CDK1 homogeneous time-resolved fluorescence (HTRF) kinase assay; settings: CDK1/CCNB
Chain of CDK1/CCNB1 (P06493 whole entry): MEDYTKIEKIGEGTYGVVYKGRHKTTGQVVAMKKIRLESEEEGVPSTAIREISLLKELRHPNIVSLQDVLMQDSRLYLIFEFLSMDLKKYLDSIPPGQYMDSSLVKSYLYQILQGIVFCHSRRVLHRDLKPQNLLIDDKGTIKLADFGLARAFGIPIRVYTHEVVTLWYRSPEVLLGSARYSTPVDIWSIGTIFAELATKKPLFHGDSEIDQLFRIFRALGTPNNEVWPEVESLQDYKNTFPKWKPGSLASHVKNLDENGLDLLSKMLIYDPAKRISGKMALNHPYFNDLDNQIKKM
Chain of CDK1/CCNB1 (P14635 whole entry partner): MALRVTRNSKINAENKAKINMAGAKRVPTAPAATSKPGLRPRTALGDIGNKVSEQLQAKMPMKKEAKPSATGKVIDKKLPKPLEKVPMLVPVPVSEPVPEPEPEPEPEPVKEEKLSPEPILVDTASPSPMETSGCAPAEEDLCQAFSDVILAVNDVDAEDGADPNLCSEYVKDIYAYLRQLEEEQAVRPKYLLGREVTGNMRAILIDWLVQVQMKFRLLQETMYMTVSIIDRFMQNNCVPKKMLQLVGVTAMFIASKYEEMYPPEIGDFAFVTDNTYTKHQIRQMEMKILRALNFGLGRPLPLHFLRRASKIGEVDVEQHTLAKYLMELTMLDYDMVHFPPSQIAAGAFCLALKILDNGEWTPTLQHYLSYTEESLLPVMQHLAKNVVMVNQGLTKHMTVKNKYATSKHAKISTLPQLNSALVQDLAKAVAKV
How it was run: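 High-ATP (1 mM) HTRF assay with 0.5 nM CDK1/cyclin B1 and 50 nM ULight-4E-BP1 (Thr37/46) substrate, 60 min at 23 °C after 20-min compound preincubation. IC50 values come from dose-response curves.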

CDK4/CCND3 = CDK4/CCND3 (Homo sapiens, UniProt P11802); experiment: CDK4 homogeneous time-resolved fluorescence (HTRF) kinase assay; settings: CDK4/CCND
Chain of CDK4/CCND3 (P11802 whole entry): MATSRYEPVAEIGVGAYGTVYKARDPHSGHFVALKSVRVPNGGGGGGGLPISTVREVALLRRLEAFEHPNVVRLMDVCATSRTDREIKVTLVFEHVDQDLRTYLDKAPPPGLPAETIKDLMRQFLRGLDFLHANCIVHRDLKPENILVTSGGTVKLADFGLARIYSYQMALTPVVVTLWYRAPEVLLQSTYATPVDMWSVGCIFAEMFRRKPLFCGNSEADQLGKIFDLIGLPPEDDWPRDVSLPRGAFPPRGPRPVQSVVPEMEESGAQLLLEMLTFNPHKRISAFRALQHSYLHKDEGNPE
Chain of CDK4/CCND3 (P30281 whole entry partner): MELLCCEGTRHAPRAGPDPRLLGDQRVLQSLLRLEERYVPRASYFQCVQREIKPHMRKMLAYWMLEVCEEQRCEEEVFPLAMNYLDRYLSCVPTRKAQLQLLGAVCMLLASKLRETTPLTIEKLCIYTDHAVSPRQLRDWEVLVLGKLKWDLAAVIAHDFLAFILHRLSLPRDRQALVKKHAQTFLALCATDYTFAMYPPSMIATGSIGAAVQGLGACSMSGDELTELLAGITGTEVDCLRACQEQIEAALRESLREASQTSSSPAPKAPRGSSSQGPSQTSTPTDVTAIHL
How it was run: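 IC50 values were derived from 11-point half-log dilutions, usually starting at 10 μM. Compound was first held for 20 min at 23 °C with 1.5 nM CDK4/CCND3. 1 mM ATP and 50 nM ULight-eIF4E-BP1 (Thr37/46) substrate were then added for 60 min, and the TR-FRET 665 nm signal was measured after EDTA stop and Eu-anti-phospho-4E-BP1 detection.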

CDK2/CCNE1 = CDK2/CCNE1 (Homo sapiens, UniProt P24941); experiment: CDK2 homogeneous time-resolved fluorescence (HTRF) kinase assay; settings: CDK2/CCNE
How it was run: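 TR-FRET read-out (665 nm, or 665/615 ratio) of Eu-antibody detection of phospho-4E-BP1 (Thr37/46) ULight peptide. Enzyme 3 nM, ATP 1 mM, peptide 50 nM, 1% DMSO; 60 min reaction at 23 °C after 20 min compound preincubation. IC50 from 11-point half-log titrations, top typically 10 μM.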

[1] = x = IC50 >250 nM, read-out: CDK6/CCND IC50 (>250 nM column)
[2] = x = IC50 >250 nM, read-out: CDK1/CCNB IC50 (>250 nM column)
[3] = x = IC50 >250 nM, read-out: CDK4/CCND IC50 (>250 nM column)
[4] = x = IC50 <25 nM, read-out: CDK2/CCNE IC50 (<25 nM)
[5] = x = IC50 25-250 nM, read-out: CDK1/CCNB IC50 (25-250 nM)
[6] = x = IC50 25-250 nM, read-out: CDK2/CCNE IC50 (25-250 nM)

Chain of CDK6/CCND1 (Q00534 whole entry): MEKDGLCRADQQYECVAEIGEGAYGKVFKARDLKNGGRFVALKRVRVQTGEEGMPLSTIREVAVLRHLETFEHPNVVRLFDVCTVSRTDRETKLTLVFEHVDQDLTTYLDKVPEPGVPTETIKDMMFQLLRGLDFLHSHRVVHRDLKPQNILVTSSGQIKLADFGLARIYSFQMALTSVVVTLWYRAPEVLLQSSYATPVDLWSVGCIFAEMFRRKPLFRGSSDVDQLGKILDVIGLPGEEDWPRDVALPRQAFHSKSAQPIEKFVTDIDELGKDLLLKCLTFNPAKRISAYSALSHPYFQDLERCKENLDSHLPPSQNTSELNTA
Chain of CDK6/CCND1 (P24385 whole entry partner): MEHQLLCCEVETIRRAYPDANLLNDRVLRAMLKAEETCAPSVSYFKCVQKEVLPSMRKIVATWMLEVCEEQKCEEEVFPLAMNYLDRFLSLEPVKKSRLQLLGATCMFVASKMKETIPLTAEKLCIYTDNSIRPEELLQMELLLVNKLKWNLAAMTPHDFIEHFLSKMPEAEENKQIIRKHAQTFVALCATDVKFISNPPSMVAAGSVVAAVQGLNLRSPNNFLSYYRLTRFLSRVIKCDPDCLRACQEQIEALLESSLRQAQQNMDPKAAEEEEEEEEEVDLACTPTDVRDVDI

pIC50 (CDK6/CCND1; [1]) | pIC50 (CDK1/CCNB1; [2]) | pIC50 (CDK4/CCND3; [3]) | pIC50 (CDK2/CCNE1; [4]) | pIC50 (CDK1/CCNB1; [5]) | pIC50 (CDK6/CCND1; x = IC50 25-250 nM, read-out: CDK6/CCND IC50 (25-250 nM)) | pIC50 (CDK4/CCND3; x = IC50 25-250 nM, read-out: CDK4/CCND IC50 (25-250 nM)) | pIC50 (CDK2/CCNE1; [6]) | SMILES
< 6.60 | < 6.60 | < 6.60 | > 7.60 | – | – | – | – | CC1(C)C(=O)Nc2cc(C#Cc3nccc4cnc(Nc5ccc(S(C)(=O)=O)c(O)c5)cc34)ccc21 [Ex 379, 6-((7-((3-hydroxy-4-(methylsulfonyl)phenyl)amino)-2,6-naphthyridin-1-yl)ethynyl)-3,3-dimethylindolin-2-one]
< 6.60 | < 6.60 | < 6.60 | > 7.60 | – | – | – | – | CC1(C)C(=O)Nc2cc(C#Cc3nccc4cnc(Nc5ccc(S(C)(=O)=O)cc5O)cc34)ccc21 [Ex 380, 6-((7-((2-hydroxy-4-(methylsulfonyl)phenyl)amino)-2,6-naphthyridin-1-yl)ethynyl)-3,3-dimethylindolin-2-one]
< 6.60 | < 6.60 | < 6.60 | > 7.60 | – | – | – | – | Cc1cc(S(C)(=O)=O)ccc1Nc1cc2c(C#Cc3ccc4c(c3)NC(=O)C43CCC3)nccc2cn1 [Ex 381, 6'-((7-((2-methyl-4-(methylsulfonyl)phenyl)amino)-2,6-naphthyridin-1-yl)ethynyl)spiro[cyclobutane-1,3'-indolin]-2'-one]
< 6.60 | – | < 6.60 | > 7.60 | 6.60 to 7.60 | – | – | – | O=C1Nc2cc(C#Cc3nccc4cnc(Nc5ccc(S(=O)(=O)C6CC6)cc5)cc34)ccc2C12CCC2 [Ex 385, 6'-((7-((4-(cyclopropylsulfonyl)phenyl)amino)-2,6-naphthyridin-1-yl)ethynyl)spiro[cyclobutane-1,3'-indolin]-2'-one]
< 6.60 | < 6.60 | < 6.60 | > 7.60 | – | – | – | – | CC(C)S(=O)(=O)c1ccc(Nc2cc3c(C#Cc4ccc5c(c4)NC(=O)C54CCC4)nccc3cn2)cc1 [Ex 386, 6'-((7-((4-(isopropylsulfonyl)phenyl)amino)-2,6-naphthyridin-1-yl)ethynyl)spiro[cyclobutane-1,3'-indolin]-2'-one]
< 6.60 | – | < 6.60 | > 7.60 | 6.60 to 7.60 | – | – | – | O=C1Nc2cc(C#Cc3nccc4cnc(Nc5ccc(S(=O)(=O)C6CCC6)cc5)cc34)ccc2C12CCC2 [Ex 387, 6'-((7-((4-(cyclobutylsulfonyl)phenyl)amino)-2,6-naphthyridin-1-yl)ethynyl)spiro[cyclobutane-1,3'-indolin]-2'-one]
< 6.60 | – | < 6.60 | > 7.60 | 6.60 to 7.60 | – | – | – | O=C1Nc2cc(C#Cc3nccc4cnc(Nc5ccc(S(=O)(=O)C6CC6)cc5)cc34)ccc2C12CC2 [Ex 392, 6'-((7-((4-(cyclopropylsulfonyl)phenyl)amino)-2,6-naphthyridin-1-yl)ethynyl)spiro[cyclopropane-1,3'-indolin]-2'-one]
< 6.60 | – | < 6.60 | > 7.60 | 6.60 to 7.60 | – | – | – | CC(C)S(=O)(=O)c1ccc(Nc2cc3c(C#Cc4ccc5c(c4)NC(=O)C54CC4)nccc3cn2)cc1 [Ex 393, 6'-((7-((4-(isopropylsulfonyl)phenyl)amino)-2,6-naphthyridin-1-yl)ethynyl)spiro[cyclopropane-1,3'-indolin]-2'-one]
< 6.60 | – | < 6.60 | > 7.60 | 6.60 to 7.60 | – | – | – | O=C1Nc2cc(C#Cc3nccc4cnc(Nc5ccc(S(=O)(=O)C6CCC6)cc5)cc34)ccc2C12CC2 [Ex 394, 6'-((7-((4-(cyclobutylsulfonyl)phenyl)amino)-2,6-naphthyridin-1-yl)ethynyl)spiro[cyclopropane-1,3'-indolin]-2'-one]
< 6.60 | < 6.60 | < 6.60 | > 7.60 | – | – | – | – | CCC1(CC)C(=O)Nc2cc(C#Cc3nccc4cnc(Nc5ccc(S(C)(=O)=O)cc5OC)cc34)ccc21 [Ex 396, 3,3-diethyl-6-((7-((2-methoxy-4-(methylsulfonyl)phenyl)amino)-2,6-naphthyridin-1-yl)ethynyl)indolin-2-one]
– | – | – | > 7.60 | 6.60 to 7.60 | 6.60 to 7.60 | 6.60 to 7.60 | – | CCS(=O)(=O)c1ccc(Nc2cc3c(C#Cc4ccc5c(c4)NC(=O)C54CC4)nccc3cn2)cc1 [Ex 397, 6'-((7-((4-(ethylsulfonyl)phenyl)amino)-2,6-naphthyridin-1-yl)ethynyl)spiro[cyclopropane-1,3'-indolin]-2'-one]
< 6.60 | < 6.60 | < 6.60 | > 7.60 | – | – | – | – | Nc1ncccc1C#Cc1nccc2cnc(Nc3ccc(S(=O)(=O)C4CC4)cc3)cc12 [Ex 399, 5-((2-aminopyridin-3-yl)ethynyl)-N-(4-(cyclopropylsulfonyl)phenyl)-2,6-naphthyridin-3-amine]
< 6.60 | < 6.60 | < 6.60 | – | – | – | – | 6.60 to 7.60 | CC(C)S(=O)(=O)c1ccc(Nc2cc3c(C#Cc4cccnc4N)nccc3cn2)cc1 [Ex 400, 5-((2-aminopyridin-3-yl)ethynyl)-N-(4-(isopropylsulfonyl)phenyl)-2,6-naphthyridin-3-amine]
< 6.60 | < 6.60 | < 6.60 | > 7.60 | – | – | – | – | CCS(=O)(=O)c1ccc(Nc2cc3c(C#Cc4cccnc4N)nccc3cn2)cc1 [Ex 401, 5-((2-aminopyridin-3-yl)ethynyl)-N-(4-(ethylsulfonyl)phenyl)-2,6-naphthyridin-3-amine]
< 6.60 | – | < 6.60 | > 7.60 | 6.60 to 7.60 | – | – | – | CCS(=O)(=O)c1ccc(Nc2cc3c(C#Cc4ccc5c(c4)NC(=O)C54CCC4)nccc3cn2)cc1 [Ex 405, 6'-((7-((4-(ethylsulfonyl)phenyl)amino)-2,6-naphthyridin-1-yl)ethynyl)spiro[cyclobutane-1,3'-indolin]-2'-one]
< 6.60 | < 6.60 | < 6.60 | – | – | – | – | 6.60 to 7.60 | CC1(C)C(=O)Nc2cc(C#Cc3nccc4cnc(Nc5ccc(S(C)(=O)=O)c(Cl)c5)cc34)ccc21 [Ex 407, 6-((7-((3-chloro-4-(methylsulfonyl)phenyl)amino)-2,6-naphthyridin-1-yl)ethynyl)-3,3-dimethylindolin-2-one]
< 6.60 | < 6.60 | < 6.60 | > 7.60 | – | – | – | – | CCC1(CC)C(=O)Nc2cc(C#Cc3nccc4cnc(Nc5ccc(S(=O)(=O)C6CCC6)cc5)cc34)ccc21 [Ex 409, 6-((7-((4-(cyclobutylsulfonyl)phenyl)amino)-2,6-naphthyridin-1-yl)ethynyl)-3,3-diethylindolin-2-one]
< 6.60 | < 6.60 | < 6.60 | – | – | – | – | 6.60 to 7.60 | CS(=O)(=O)c1ccc(Nc2cc3c(C#Cc4cccnc4N)nccc3cn2)c(F)c1 [Ex 418, 5-((2-aminopyridin-3-yl)ethynyl)-N-(2-fluoro-4-(methylsulfonyl)phenyl)-2,6-naphthyridin-3-amine]
< 6.60 | < 6.60 | < 6.60 | – | – | – | – | 6.60 to 7.60 | CS(=O)(=O)c1ccc(Nc2cc3c(C#Cc4cccnc4N)nccc3cn2)nc1 [Ex 419, 5-((2-aminopyridin-3-yl)ethynyl)-N-(5-(methylsulfonyl)pyridin-2-yl)-2,6-naphthyridin-3-amine]
< 6.60 | < 6.60 | < 6.60 | – | – | – | – | 6.60 to 7.60 | Cc1cc(S(C)(=O)=O)ccc1Nc1cc2c(C#Cc3cccnc3N)nccc2cn1 [Ex 420, 5-((2-aminopyridin-3-yl)ethynyl)-N-(2-methyl-4-(methylsulfonyl)phenyl)-2,6-naphthyridin-3-amine]
< 6.60 | < 6.60 | < 6.60 | > 7.60 | – | – | – | – | CC1(C)C(=O)Nc2cc(C#Cc3nccc4cnc(Nc5ccc(S(C)(=O)=O)c(F)c5)cc34)ccc21 [Ex 422, 6-((7-((3-fluoro-4-(methylsulfonyl)phenyl)amino)-2,6-naphthyridin-1-yl)ethynyl)-3,3-dimethylindolin-2-one]
< 6.60 | < 6.60 | < 6.60 | > 7.60 | – | – | – | – | CC1(C)C(=O)Nc2cc(C#Cc3nccc4cnc(Nc5ccc(S(C)(=O)=O)cc5Cl)cc34)ccc21 [Ex 423, 6-((7-((2-chloro-4-(methylsulfonyl)phenyl)amino)-2,6-naphthyridin-1-yl)ethynyl)-3,3-dimethylindolin-2-one]
